According to US7902181B2, “Compounds 010” (AstraZeneca AB, priority 2007, dated 2011):
Counter-ions that a name gives are not always drawn.

Target: Recombinant Human (rh) DPP1 (Homo sapiens, UniProt P53634)
Assay: Fluorescence Assay for Recombinant Human (rh) DPP1
Type: biochemical
Details: rhDPP1; substrate H-Gly-Arg-AMC; pH5.0; 30 min pre-incubation, 60 min reaction at 22° C.; highest concentration 10 μM; read-out: DPP1 activity, pIC50 (converted)
Description: Fluorescence Assay for Recombinant Human (rh) DPP1
The activity of DPP1 was determined by measuring the enzymatic release of aminomethyl coumarin (AMC) from the peptide substrate (H-Gly-Arg-AMC), which leads to an increase in fluorescence intensity at λex=350 nm and λem=450 nm. The assay was carried out in black 384 well plates in a final volume of 50 μl at 22° C. The assay conditions contained the following: 25 mM piperazine buffer pH5.0; 50 mM NaCl, 5 mM DTT; 0.01% (v/v) Triton X-100; 100 μM H-Gly-Arg-AMC and rhDPP1 ([…]). Potential inhibitors were made up in DMSO and then diluted in the assay to give a final concentration of 1% (v/v) DMSO. A 12-point half-log dilution of the inhibitors (highest concentration 10 μM) was tested and the pIC50 determined using a 4-parameter logistic equation in a non-linear curve fitting routine. A standard DPP1 inhibitor (vinyl sulfone, see below) was used as a positive control in the assay. Routinely, inhibitors were pre-incubated with rhDPP1 for 30 min prior to the addition of the peptide substrate to start the reaction for a further 60 min at 22° C. After that the plates were immediately read in a fluorescence plate reader using the above emission and excitation wavelengths [modified from Kam, C M, Gotz, M G, Koot, G, McGuire, M J, Thiele, D L, Hudig, D & Powers, J C (2004). Arch Biochem Biophys, 427, 123-134 & McGuire, M J, Lipsky, P E & Thiele, D L (1992). Arch Biochem Biophys, 295, 280-288].

Recombinant Human (rh) DPP1, sequence (P53634 25-463): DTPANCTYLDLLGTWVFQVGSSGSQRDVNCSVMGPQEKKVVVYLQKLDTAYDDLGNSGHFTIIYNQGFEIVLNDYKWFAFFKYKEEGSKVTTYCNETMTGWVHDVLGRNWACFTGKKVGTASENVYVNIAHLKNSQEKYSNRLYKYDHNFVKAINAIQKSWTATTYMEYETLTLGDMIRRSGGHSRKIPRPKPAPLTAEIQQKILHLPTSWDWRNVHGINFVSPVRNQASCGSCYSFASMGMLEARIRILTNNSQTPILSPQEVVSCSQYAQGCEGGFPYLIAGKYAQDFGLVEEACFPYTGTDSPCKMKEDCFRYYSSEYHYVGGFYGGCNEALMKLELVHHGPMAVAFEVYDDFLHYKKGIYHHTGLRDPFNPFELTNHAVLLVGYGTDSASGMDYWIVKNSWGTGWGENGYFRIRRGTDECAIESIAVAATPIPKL

Structure (SMILES)	IC50
CN(C)C(=O)c1cc(Cl)cc(-c2ccc(CC(C#N)NC(=O)[C@@H]3CCCCN3)cn2)c1 (mixture of isomers) [Example 81, (S)-N-((S)-2-(6-(3-Chloro-5-(dimethylcarbamoyl)phenyl)pyridin-3-yl)-1-cyanoethyl)piperidine-2-carboxamide Trifluoroacetate]	794 nM
N#CC(Cc1ccc(-c2ccc(S(=O)(=O)N3CCOCC3)cc2)cc1)NC(=O)[C@@H]1CCCCN1 (mixture of isomers) [Example 94, (S)-N-((S)-1-Cyano-2-(4′-(morpholinosulfonyl)biphenyl-4-yl)ethyl)piperidine-2-carboxamide Trifluoroacetate]	15.8 nM
N#C[C@H](Cc1ccc(-c2cccc(Cl)c2)cc1)NC(=O)[C@@H]1CCCCN1 [Example 1, (S)-N-((S)-2-(3′-Chlorobiphenyl-4-yl)-1-cyanoethyl)piperidine-2-carboxamide Trifluoroacetate]	63.1 nM
N#C[C@H](Cc1ccc(-c2cccc(CN3CCCCC3)c2)cc1)NC(=O)[C@@H]1CCCCN1 [Example 2, (S)-N-((S)-1-Cyano-2-(3′-(piperidin-1-ylmethyl)biphenyl-4-yl)ethyl)piperidine-2-carboxamide di-trifluoroacetate]	79.4 nM
N#C[C@H](Cc1ccc(-c2ccccc2)cc1)NC(=O)[C@@H]1CCCN1 [Example 3, (S)-N-((S)-2-(Biphenyl-4-yl)-1-cyanoethyl)pyrrolidine-2-carboxamide]	316 nM
N#C[C@H](Cc1ccc(-c2cnn(Cc3ccccc3)c2)cc1)NC(=O)[C@@H]1CCCCN1 [Example 4, (S)-N-((S)-2-(4-(1-Benzyl-1H-pyrazol-4-yl)phenyl)-1-cyanoethyl)-piperidine-2-carboxamide Trifluoroacetate]	31.6 nM
N#C[C@H](Cc1ccc(-c2ccc(C(N)=O)cc2)cc1)NC(=O)[C@@H]1CCCCN1 [Example 5, (S)-N-((S)-2-(4′-Carbamoylbiphenyl-4-yl)-1-cyanoethyl)piperidine-2-carboxamide Trifluoroacetate]	63.1 nM
N#Cc1cccc(-c2ccc(C[C@@H](C#N)NC(=O)[C@@H]3CCCCN3)cc2)c1 [Example 6, (S)-N-((S)-1-Cyano-2-(3′-cyanobiphenyl-4-yl)ethyl)piperidine-2-carboxamide Trifluoroacetate]	63.1 nM
N#C[C@H](Cc1ccc(-c2cccc(CN)c2)cc1)NC(=O)[C@@H]1CCCCN1 [Example 7, (S)-N-((S)-2-(3′-(Aminomethyl)biphenyl-4-yl)-1-cyanoethyl)piperidine-2-carboxamide Ditrifluoroacetate]	100 nM
CC(=O)Nc1cccc(-c2ccc(C[C@@H](C#N)NC(=O)[C@@H]3CCCCN3)cc2)c1 [Example 8, (S)-N-((S)-2-(3′-Acetamidobiphenyl-4-yl)-1-cyanoethyl)piperidine-2-carboxamide Trifluoroacetate]	126 nM
N#C[C@H](Cc1ccc(-c2ccc(CN3CCOCC3)cc2)cc1)NC(=O)[C@@H]1CCCCN1 [Example 9, (S)-N-((S)-1-Cyano-2-(4′-(morpholinomethyl)biphenyl-4-yl)ethyl)piperidine-2-carboxamide Trifluoroacetate]	158 nM
N#C[C@H](Cc1ccc(-c2cccnc2)cc1)NC(=O)[C@@H]1CCCCN1 [Example 10, (S)-N-((S)-1-Cyano-2-(4-(pyridin-3-yl)phenyl)ethyl)piperidine-2-carboxamide Trifluoroacetate]	251 nM
Cc1cc(O)ccc1-c1ccc(C[C@@H](C#N)NC(=O)[C@@H]2CCCCN2)cc1 [Example 11, (S)-N-((S)-1-Cyano-2-(4′-hydroxy-2′-methylbiphenyl-4-yl)ethyl)piperidine-2-carboxamide Trifluoroacetate]	316 nM
N#C[C@H](Cc1ccc(-c2cccc(C(=O)O)c2)cc1)NC(=O)[C@@H]1CCCCN1 [Example 12, 4′-((S)-2-Cyano-2-((S)-piperidine-2-carboxamido)ethyl)biphenyl-3-carboxylic Acid Trifluoroacetate]	398 nM
N#C[C@H](Cc1ccc(-c2ccccc2O[C@@H]2CCNC2)cc1)NC(=O)[C@@H]1CCCCN1 [Example 13, (S)-N-((S)-1-Cyano-2-(2′-((R)-pyrrolidin-3-yloxy)biphenyl-4-yl)ethyl)piperidine-2-carboxamide Ditrifluoroacetate]	794 nM
N#C[C@H](Cc1ccc(-c2cc3ccccc3[nH]2)cc1)NC(=O)[C@@H]1CCCCN1 [Example 14, (S)-N-((S)-2-(4-(1H-Indol-2-yl)phenyl)-1-cyanoethyl)piperidine-2-carboxamide Trifluoroacetate]	7.94 nM

Structure (SMILES)	IC50
COc1cccc(-c2ccc(C[C@@H](C#N)NC(=O)[C@@H]3CCCCN3)cc2)c1 [Example 15, (2S)-N-[(1S)-1-Cyano-2-(3′-methoxybiphenyl-4-yl)ethyl]piperidine-2-carboxamide Trifluoroacetate]	100 nM
N#C[C@H](Cc1ccc(-c2ccccc2)cc1)NC(=O)[C@@H]1CCCCN1 [Example 16, Piperidine-2-carboxylic acid (2-biphenyl-4-yl-1-cyano-ethyl)-amide]	126 nM
N#C[C@H](Cc1ccc(-c2ccccc2)cc1)NC(=O)[C@@H]1C[C@@H](O)CN1 [Example 17, (2S,4R)-N-((S)-2-(Biphenyl-4-yl)-1-cyanoethyl)-4-hydroxypyrrolidine-2-carboxamide]	200 nM
N#Cc1cccc(-c2ccc(C[C@@H](C#N)NC(=O)[C@@H]3CCN3)cc2)c1 [Example 19, (S)-N-((S)-1-Cyano-2-(3′-cyanobiphenyl-4-yl)ethyl)azetidine-2-carboxamide]	200 nM
CN(C)S(=O)(=O)c1ccc(-c2ccc(C[C@@H](C#N)NC(=O)[C@@H]3CCCCN3)cc2)cc1 [Example 20, (2S)-N-[(1S)-1-Cyano-2-[4-[4-(dimethylsulfamoyl)phenyl]phenyl]ethyl]piperidine-2-carboxamide trifluoroacetate]	25.1 nM
N#C[C@H](Cc1ccc(-c2cnoc2)cc1)NC(=O)[C@@H]1CCCCN1 [Example 21, (2S)-N-[(1S)-1-Cyano-2-(4-1,2-oxazol-4-ylphenyl)ethyl]piperidine-2-carboxamide trifluoroacetate]	50.1 nM
CSc1cccc(-c2ccc(C[C@@H](C#N)NC(=O)[C@@H]3CCCCN3)cc2)c1 [Example 22, (2S)-N-[(1S)-1-Cyano-2-[4-(3-methylsulfanylphenyl)phe-nyl]ethyl]piperidine-2-carboxamide trifluoroacetate]	63.1 nM
N#C[C@H](Cc1ccc(-c2ccc(O)cc2)cc1)NC(=O)[C@@H]1CCCCN1 [Example 23, (2S)-N-[(1S)-1-Cyano-2-[4-(4-hydroxyphenyl)phenyl]ethyl]piperidine-2-carboxamide trifluoroacetate]	63.1 nM
N#Cc1ccc(-c2ccc(C[C@@H](C#N)NC(=O)[C@@H]3CCCCN3)cc2)cc1 [Example 24, (2S)-N-[(1S)-1-Cyano-2-[4-(4-cyanophenyl)phenyl]ethyl]piperidine-2-carboxamide trifluoroacetate]	15.8 nM
COc1ccc(-c2ccc(C[C@@H](C#N)NC(=O)[C@@H]3CCCCN3)cc2)cc1 [Example 25, (2S)-N-[(1S)-1-Cyano-2-[4-(4-methoxyphenyl)phenyl]ethyl]piperidine-2-carboxamide trifluoroacetate]	63.1 nM
Cn1cc(-c2ccc(C[C@@H](C#N)NC(=O)[C@@H]3CCCCN3)cc2)cn1 [Example 26, (2S)-N-[(1S)-1-Cyano-2-[4-(1-methylpyrazol-4-yl)phenyl]ethyl]piperidine-2-carboxamide trifluoroacetate]	63.1 nM
N#C[C@H](Cc1ccc(-c2ccc(CCCO)cc2)cc1)NC(=O)[C@@H]1CCCCN1 [Example 27, (2S)-N-[(1S)-1-Cyano-2-[4-[4-(3-hydroxypropyl)phenyl]phenyl]ethyl]piperidine-2-carboxamide trifluoroacetate]	63.1 nM
N#C[C@H](Cc1ccc(-c2ccc3c(c2)OCO3)cc1)NC(=O)[C@@H]1CCCCN1 [Example 28, (2S)-N-[(1S)-2-(4-Benzo[1,3]dioxol-5-ylphenyl)-1-cyano-ethyl]piperidine-2-carboxamide trifluoroacetate]	100 nM
N#C[C@H](Cc1ccc(-c2ccc(F)c(F)c2)cc1)NC(=O)[C@@H]1CCCCN1 [Example 29, (2S)-N-[(1S)-1-Cyano-2-[4-(3,4-difluorophenyl)phenyl]ethyl]piperidine-2-carboxamide trifluoroacetate]	100 nM
N#C[C@H](Cc1ccc(-c2ccc(F)cc2OCc2ccccc2)cc1)NC(=O)[C@@H]1CCCCN1 [Example 30, (2S)-N-[(1S)-1-Cyano-2-[4-(4-fluoro-2-phenylmethoxy-phenyl)phenyl]ethyl]pipe-ridine-2-carboxamide trifluoroacetate]	100 nM
COc1ccc(-c2ccc(C[C@@H](C#N)NC(=O)[C@@H]3CCCCN3)cc2)cc1F [Example 31, (2S)-N-[(1S)-1-Cyano-2-[4-(3-fluoro-4-methoxy-phenyl)phenyl]ethyl]pipe-ridine-2-carboxamide trifluoroacetate]	158 nM
